The results in this text go back to the supplement of paper PMC10307832.

In the first assay the test system is NCI-H460. The experiment in a line: relative viability (nuclei count vs DMSO), 5 days (fraction); higher = more cells survive. The settings on record: first compound 0.08 µM. An outline of the steps: (§1)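 Cells from lung cancer lines were seeded into 1536-well plates and, one day later, dosed by pin tool. Treatments were either a single drug or a fixed dose of an anchor drug with five library-drug doses (not always all listed) in √10 steps. After 5 days, nuclei were stained in a one-step fixation (final 0.05% Triton X-100, 1% formaldehyde, 1 ug/ml Hoechst) and counted on 4× images, and relative viability is the treated-to-vehicle nuclei ratio, as the median of duplicate plates.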
In turn, `CCCCCCCCCCCC1=C(O)C(=O)C=C(O)C1=O` [Embelin] + O=C(CCCCCCC(=O)Nc1ccccc1)NO [Vorinostat] (partner 1 µM) came in with a relative viability of 0.687.
Same read-out and setting: under `CCCCCCCCCCCC1=C(O)C(=O)C=C(O)C1=O` [Embelin] + O=C(c1cc(Cc2n[nH]c(=O)c3ccccc23)ccc1F)N1CCN(C(=O)C2CC2)CC1 [Olaparib] (partner 8 µM) stands 0.45; under `CCCCCCCCCCCC1=C(O)C(=O)C=C(O)C1=O` [Embelin] + Cc1cc(Nc2cc(N3CCN(C)CC3)nc(Sc3ccc(NC(=O)C4CC4)cc3)n2)n[nH]1 [Tozasertib] (partner 0.1 µM), 0.516; under `CCCCCCCCCCCC1=C(O)C(=O)C=C(O)C1=O` [Embelin] + Nc1ncn([C@H]2C[C@H](O)[C@@H](CO)O2)c(=O)n1 [Decitabine] (partner 2 µM), 0.455.
Take `CCCCCCCCCCCC1=C(O)C(=O)C=C(O)C1=O` [Embelin] + CC(=O)c1c(C)c2cnc(Nc3ccc(N4CCNCC4)cn3)nc2n(C2CCCC2)c1=O [Palbociclib] (partner 0.5 µM): the relative viability was found to be 0.169.

Still in this assay, the particulars now being: first compound 0.8 µM.
Consider `CCCCCCCCCCCC1=C(O)C(=O)C=C(O)C1=O` [Embelin] + O=C(CCCCCCC(=O)Nc1ccccc1)NO [Vorinostat] (partner 1 µM), for which the relative viability was determined as 0.948.
Still for that read-out and setting: with `CCCCCCCCCCCC1=C(O)C(=O)C=C(O)C1=O` [Embelin] + O=C(c1cc(Cc2n[nH]c(=O)c3ccccc23)ccc1F)N1CCN(C(=O)C2CC2)CC1 [Olaparib] (partner 8 µM) the figure was 0.431; with `CCCCCCCCCCCC1=C(O)C(=O)C=C(O)C1=O` [Embelin] + Cc1cc(Nc2cc(N3CCN(C)CC3)nc(Sc3ccc(NC(=O)C4CC4)cc3)n2)n[nH]1 [Tozasertib] (partner 0.1 µM), 0.493; with `CCCCCCCCCCCC1=C(O)C(=O)C=C(O)C1=O` [Embelin] + Nc1ncn([C@H]2C[C@H](O)[C@@H](CO)O2)c(=O)n1 [Decitabine] (partner 2 µM), 0.511.
Still for that read-out and setting: under `CCCCCCCCCCCC1=C(O)C(=O)C=C(O)C1=O` [Embelin] + CC(=O)c1c(C)c2cnc(Nc3ccc(N4CCNCC4)cn3)nc2n(C2CCCC2)c1=O [Palbociclib] (partner 0.5 µM) stands 0.227.

Staying with this assay, now noted: first compound 2.53 µM.
`CCCCCCCCCCCC1=C(O)C(=O)C=C(O)C1=O` [Embelin] + O=C(CCCCCCC(=O)Nc1ccccc1)NO [Vorinostat] (partner 1 µM) came in with a relative viability of 0.933.
Still for that read-out and setting: with `CCCCCCCCCCCC1=C(O)C(=O)C=C(O)C1=O` [Embelin] + O=C(c1cc(Cc2n[nH]c(=O)c3ccccc23)ccc1F)N1CCN(C(=O)C2CC2)CC1 [Olaparib] (partner 8 µM) the figure was 0.421; with `CCCCCCCCCCCC1=C(O)C(=O)C=C(O)C1=O` [Embelin] + Cc1cc(Nc2cc(N3CCN(C)CC3)nc(Sc3ccc(NC(=O)C4CC4)cc3)n2)n[nH]1 [Tozasertib] (partner 0.1 µM), 0.666; with `CCCCCCCCCCCC1=C(O)C(=O)C=C(O)C1=O` [Embelin] + Nc1ncn([C@H]2C[C@H](O)[C@@H](CO)O2)c(=O)n1 [Decitabine] (partner 2 µM), 0.577.
On the same count and under the same terms, with `CCCCCCCCCCCC1=C(O)C(=O)C=C(O)C1=O` [Embelin] + CC(=O)c1c(C)c2cnc(Nc3ccc(N4CCNCC4)cn3)nc2n(C2CCCC2)c1=O [Palbociclib] (partner 0.5 µM) the figure was 0.134.

Still in this assay, the particulars now being: first compound 8 µM.
Compound `CCCCCCCCCCCC1=C(O)C(=O)C=C(O)C1=O` [Embelin] + O=C(CCCCCCC(=O)Nc1ccccc1)NO [Vorinostat] (partner 1 µM) showed a relative viability of 0.397.
The same measure, in the same setting: under `CCCCCCCCCCCC1=C(O)C(=O)C=C(O)C1=O` [Embelin] + O=C(c1cc(Cc2n[nH]c(=O)c3ccccc23)ccc1F)N1CCN(C(=O)C2CC2)CC1 [Olaparib] (partner 8 µM) stands 0.468; under `CCCCCCCCCCCC1=C(O)C(=O)C=C(O)C1=O` [Embelin] + Cc1cc(Nc2cc(N3CCN(C)CC3)nc(Sc3ccc(NC(=O)C4CC4)cc3)n2)n[nH]1 [Tozasertib] (partner 0.1 µM), 0.883.
Compound `CCCCCCCCCCCC1=C(O)C(=O)C=C(O)C1=O` [Embelin] + Nc1ncn([C@H]2C[C@H](O)[C@@H](CO)O2)c(=O)n1 [Decitabine] (partner 2 µM) gave a relative viability of 0.254.
On the same count and under the same terms, with `CCCCCCCCCCCC1=C(O)C(=O)C=C(O)C1=O` [Embelin] + CC(=O)c1c(C)c2cnc(Nc3ccc(N4CCNCC4)cn3)nc2n(C2CCCC2)c1=O [Palbociclib] (partner 0.5 µM) the figure was 0.156.

In the next assay the test system is NCI-H520. The description is as above. The settings on record: first compound 0.08 µM. The procedure, abridged:
as §1
On to `CCCCCCCCCCCC1=C(O)C(=O)C=C(O)C1=O` [Embelin] + O=C(CCCCCCC(=O)Nc1ccccc1)NO [Vorinostat] (partner 1 µM), for which the relative viability was found to be 0.741.
Same read-out and setting: under `CCCCCCCCCCCC1=C(O)C(=O)C=C(O)C1=O` [Embelin] + O=C(c1cc(Cc2n[nH]c(=O)c3ccccc23)ccc1F)N1CCN(C(=O)C2CC2)CC1 [Olaparib] (partner 8 µM) stands 0.39.
The compound `CCCCCCCCCCCC1=C(O)C(=O)C=C(O)C1=O` [Embelin] + Cc1cc(Nc2cc(N3CCN(C)CC3)nc(Sc3ccc(NC(=O)C4CC4)cc3)n2)n[nH]1 [Tozasertib] (partner 0.1 µM) yielded a relative viability of 0.56.
In turn, `CCCCCCCCCCCC1=C(O)C(=O)C=C(O)C1=O` [Embelin] + Nc1ncn([C@H]2C[C@H](O)[C@@H](CO)O2)c(=O)n1 [Decitabine] (partner 2 µM) displayed a relative viability of 0.478.
Same read-out and setting: under `CCCCCCCCCCCC1=C(O)C(=O)C=C(O)C1=O` [Embelin] + CC(=O)c1c(C)c2cnc(Nc3ccc(N4CCNCC4)cn3)nc2n(C2CCCC2)c1=O [Palbociclib] (partner 0.5 µM) stands 0.303.

Staying with this assay, now noted: first compound 0.8 µM.
Consider `CCCCCCCCCCCC1=C(O)C(=O)C=C(O)C1=O` [Embelin] + O=C(CCCCCCC(=O)Nc1ccccc1)NO [Vorinostat] (partner 1 µM), for which the relative viability was determined as 0.816.
Still for that read-out and setting: with `CCCCCCCCCCCC1=C(O)C(=O)C=C(O)C1=O` [Embelin] + O=C(c1cc(Cc2n[nH]c(=O)c3ccccc23)ccc1F)N1CCN(C(=O)C2CC2)CC1 [Olaparib] (partner 8 µM) the figure was 0.327; with `CCCCCCCCCCCC1=C(O)C(=O)C=C(O)C1=O` [Embelin] + Cc1cc(Nc2cc(N3CCN(C)CC3)nc(Sc3ccc(NC(=O)C4CC4)cc3)n2)n[nH]1 [Tozasertib] (partner 0.1 µM), 0.459; with `CCCCCCCCCCCC1=C(O)C(=O)C=C(O)C1=O` [Embelin] + Nc1ncn([C@H]2C[C@H](O)[C@@H](CO)O2)c(=O)n1 [Decitabine] (partner 2 µM), 0.558.
Still for that read-out and setting: with `CCCCCCCCCCCC1=C(O)C(=O)C=C(O)C1=O` [Embelin] + CC(=O)c1c(C)c2cnc(Nc3ccc(N4CCNCC4)cn3)nc2n(C2CCCC2)c1=O [Palbociclib] (partner 0.5 µM) the figure was 0.186.
